Laboratory results: ChEMBL document CHEMBL1147799, “An integrated in silico 3D model-driven discovery of a novel, potent, and selective amidosulfonamide 5-HT1A agonist (PRX-00023) for the treatment of anxiety and depression” (J Med Chem, 2006)
pEC50, pIC50, pKi: −log10 of the molar value. Each block holds one compound with its values, some of them ahead of it.

Key:
[1] = target: T1, Alpha-2A adrenergic receptor (Rattus norvegicus) (UniProt P22909); test: Displacement of [3H]RX 821002 from Adrenergic alpha-2a receptor in rat cerebral cortex cells at 1 uM; type: cell-based
T1 sequence (whole entry): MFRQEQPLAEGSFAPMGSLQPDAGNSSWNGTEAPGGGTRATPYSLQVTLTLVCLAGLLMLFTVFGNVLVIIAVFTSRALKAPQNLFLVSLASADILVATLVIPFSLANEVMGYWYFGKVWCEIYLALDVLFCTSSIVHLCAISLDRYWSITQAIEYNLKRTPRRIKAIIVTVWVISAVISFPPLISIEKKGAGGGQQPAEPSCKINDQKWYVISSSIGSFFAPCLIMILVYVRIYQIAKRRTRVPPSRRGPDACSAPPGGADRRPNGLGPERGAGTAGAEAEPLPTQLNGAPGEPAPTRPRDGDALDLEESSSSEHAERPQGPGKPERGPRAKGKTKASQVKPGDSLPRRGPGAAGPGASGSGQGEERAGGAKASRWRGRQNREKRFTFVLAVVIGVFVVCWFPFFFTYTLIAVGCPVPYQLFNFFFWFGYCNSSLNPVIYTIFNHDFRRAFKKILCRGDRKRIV

[2] = Half life in Sprague-Dawley rat at 3 mg/kg, po; type: ADME, organism-based; design: dose 3 mg/kg, route oral; details: in vivo
[3] = target: T2, Adrenergic receptor alpha-1 (Rattus norvegicus) (UniProt P15823+P23944+P43140); test: Displacement of [3H]prazosin from Adrenergic alpha-1 receptor in rat cerebral cortex cells at 1 uM; type: cell-based
[4] = target: T3, 5-hydroxytryptamine receptor 1A (Homo sapiens, UniProt P08908); test: Displacement of [3H]8-OH-DPAT from human 5HT1A receptor in HEK293 cells
T3 sequence (P08908 whole entry): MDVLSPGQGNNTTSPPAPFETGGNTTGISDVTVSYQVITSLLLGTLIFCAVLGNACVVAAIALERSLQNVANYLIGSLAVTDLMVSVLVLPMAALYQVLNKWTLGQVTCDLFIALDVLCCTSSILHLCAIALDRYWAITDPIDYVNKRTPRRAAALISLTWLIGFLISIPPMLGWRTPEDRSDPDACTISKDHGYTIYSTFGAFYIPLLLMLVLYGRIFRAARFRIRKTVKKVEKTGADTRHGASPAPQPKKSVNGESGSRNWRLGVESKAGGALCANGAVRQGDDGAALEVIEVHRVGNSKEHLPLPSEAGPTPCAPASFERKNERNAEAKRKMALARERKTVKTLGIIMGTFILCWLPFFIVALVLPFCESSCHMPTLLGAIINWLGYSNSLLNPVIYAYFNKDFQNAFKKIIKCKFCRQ

[5] = target: T4, Adrenergic receptor alpha-1 (Rattus norvegicus, UniProt P15823+P23944+P43140); test: Displacement of [3H]prazosin from adrenergic alpha-1 receptor in rat cerebral cortex cells; type: cell-based
T4 sequence (P15823 whole entry): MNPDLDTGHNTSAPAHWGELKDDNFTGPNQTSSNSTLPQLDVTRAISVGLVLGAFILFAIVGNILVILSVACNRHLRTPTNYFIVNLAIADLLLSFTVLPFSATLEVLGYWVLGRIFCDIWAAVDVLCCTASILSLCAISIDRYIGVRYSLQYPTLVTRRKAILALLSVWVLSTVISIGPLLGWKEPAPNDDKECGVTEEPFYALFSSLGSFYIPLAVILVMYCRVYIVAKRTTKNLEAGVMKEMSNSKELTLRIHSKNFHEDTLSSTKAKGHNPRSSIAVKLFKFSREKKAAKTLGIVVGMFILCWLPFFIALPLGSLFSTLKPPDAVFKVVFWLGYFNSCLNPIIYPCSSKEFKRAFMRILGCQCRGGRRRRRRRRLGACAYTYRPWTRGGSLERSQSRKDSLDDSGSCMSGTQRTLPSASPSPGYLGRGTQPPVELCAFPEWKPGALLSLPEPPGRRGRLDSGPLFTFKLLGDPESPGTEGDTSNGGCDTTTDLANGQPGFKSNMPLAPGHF
T4 sequence (P23944 whole entry): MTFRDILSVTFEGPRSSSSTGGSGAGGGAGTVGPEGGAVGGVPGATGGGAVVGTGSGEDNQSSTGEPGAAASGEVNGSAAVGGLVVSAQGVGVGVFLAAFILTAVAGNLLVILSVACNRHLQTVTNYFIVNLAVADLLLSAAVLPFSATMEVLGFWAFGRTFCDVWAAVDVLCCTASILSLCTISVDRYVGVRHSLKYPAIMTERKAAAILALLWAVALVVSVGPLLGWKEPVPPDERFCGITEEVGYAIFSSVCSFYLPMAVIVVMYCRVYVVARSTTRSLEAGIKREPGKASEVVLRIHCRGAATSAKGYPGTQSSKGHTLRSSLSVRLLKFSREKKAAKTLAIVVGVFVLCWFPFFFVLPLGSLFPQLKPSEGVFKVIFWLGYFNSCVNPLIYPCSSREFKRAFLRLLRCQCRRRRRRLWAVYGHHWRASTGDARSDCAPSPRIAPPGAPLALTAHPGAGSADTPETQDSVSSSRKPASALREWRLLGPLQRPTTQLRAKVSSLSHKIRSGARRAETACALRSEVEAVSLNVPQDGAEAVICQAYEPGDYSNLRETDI
T4 sequence (P43140 whole entry): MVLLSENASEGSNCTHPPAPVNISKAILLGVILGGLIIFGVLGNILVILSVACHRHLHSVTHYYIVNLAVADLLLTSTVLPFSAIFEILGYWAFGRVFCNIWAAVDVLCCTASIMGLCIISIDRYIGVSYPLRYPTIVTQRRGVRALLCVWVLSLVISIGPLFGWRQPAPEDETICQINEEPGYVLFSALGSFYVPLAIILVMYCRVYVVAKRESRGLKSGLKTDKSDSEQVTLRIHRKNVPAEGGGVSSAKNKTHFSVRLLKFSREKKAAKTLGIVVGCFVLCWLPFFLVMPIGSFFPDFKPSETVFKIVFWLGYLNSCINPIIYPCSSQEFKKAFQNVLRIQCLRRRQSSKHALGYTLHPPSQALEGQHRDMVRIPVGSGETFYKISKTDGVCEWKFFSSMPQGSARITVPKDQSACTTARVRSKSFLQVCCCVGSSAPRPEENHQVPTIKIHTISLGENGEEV

[6] = Selectivity for adrenergic alpha-1 receptor over 5HT1A receptor
[7] = target: D(2) dopamine receptor (Homo sapiens, UniProt P14416); test: Binding affinity to D2 receptor by radioligand binding assay
Sequence of D(2) dopamine receptor (P14416 whole entry): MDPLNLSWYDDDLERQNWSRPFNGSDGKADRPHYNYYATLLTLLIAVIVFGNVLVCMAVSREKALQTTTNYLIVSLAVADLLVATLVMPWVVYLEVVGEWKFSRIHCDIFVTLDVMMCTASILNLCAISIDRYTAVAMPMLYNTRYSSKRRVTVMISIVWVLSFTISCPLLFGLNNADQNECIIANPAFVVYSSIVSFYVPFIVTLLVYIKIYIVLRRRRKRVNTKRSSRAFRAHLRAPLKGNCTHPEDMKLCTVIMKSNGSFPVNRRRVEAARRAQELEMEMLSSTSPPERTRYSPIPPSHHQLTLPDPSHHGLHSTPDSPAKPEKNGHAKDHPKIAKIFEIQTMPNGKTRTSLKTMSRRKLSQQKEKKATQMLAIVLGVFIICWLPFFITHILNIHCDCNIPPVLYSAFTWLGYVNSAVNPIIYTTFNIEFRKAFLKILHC

[8] = target: Dopamine D2 receptor and serotonin 1a receptor (Homo sapiens) (UniProt P14416+P08908); test: Selectivity for D2 receptor over 5HT1A receptor; type: protein assay
Sequence of Dopamine D2 receptor and serotonin 1a receptor (Homo sapiens) (P14416 whole entry, looked up, one chain of several): as the sequence (P14416 whole entry) above

[9] = Elimination half life in human; type: ADME, organism-based; details: in vivo
[10] = target: T5, 5-hydroxytryptamine receptor 1A (Homo sapiens) (UniProt P08908); test: Activity against 5HT1A receptor relative to 5-HT by Gi-[35S]GTP-gamma-S binding assay; type: functional
T5 sequence (whole entry): T3 sequence (P08908 whole entry)

[11] = Half life in human liver microsome at 5 uM; type: ADME; details: liver microsomes
[12] = Half life in human liver S9 fraction at 5 uM; type: ADME
[13] = target: T3, 5-hydroxytryptamine receptor 1A; test: Activity against 5HT1A receptor by Gi-[35S]GTP-gamma-S binding assay; type: functional
[14] = target: T2, Adrenergic receptor alpha-1 (Rattus norvegicus); test: Displacement of [3H]prazosin from Adrenergic alpha-1 receptor in rat cerebral cortex cells at 1 uM
[15] = Oral bioavailability in Sprague-Dawley rat at 3 mg/kg, po and 1 mg/kg, iv; type: ADME, organism-based; details: in vivo
[16] = target: Voltage-gated inwardly rectifying potassium channel KCNH2 (Homo sapiens, UniProt Q12809); test: Inhibition of hERG potassium channel in HEK293 cells by patch clamp assay
Sequence of Voltage-gated inwardly rectifying potassium channel KCNH2 (Q12809 whole entry): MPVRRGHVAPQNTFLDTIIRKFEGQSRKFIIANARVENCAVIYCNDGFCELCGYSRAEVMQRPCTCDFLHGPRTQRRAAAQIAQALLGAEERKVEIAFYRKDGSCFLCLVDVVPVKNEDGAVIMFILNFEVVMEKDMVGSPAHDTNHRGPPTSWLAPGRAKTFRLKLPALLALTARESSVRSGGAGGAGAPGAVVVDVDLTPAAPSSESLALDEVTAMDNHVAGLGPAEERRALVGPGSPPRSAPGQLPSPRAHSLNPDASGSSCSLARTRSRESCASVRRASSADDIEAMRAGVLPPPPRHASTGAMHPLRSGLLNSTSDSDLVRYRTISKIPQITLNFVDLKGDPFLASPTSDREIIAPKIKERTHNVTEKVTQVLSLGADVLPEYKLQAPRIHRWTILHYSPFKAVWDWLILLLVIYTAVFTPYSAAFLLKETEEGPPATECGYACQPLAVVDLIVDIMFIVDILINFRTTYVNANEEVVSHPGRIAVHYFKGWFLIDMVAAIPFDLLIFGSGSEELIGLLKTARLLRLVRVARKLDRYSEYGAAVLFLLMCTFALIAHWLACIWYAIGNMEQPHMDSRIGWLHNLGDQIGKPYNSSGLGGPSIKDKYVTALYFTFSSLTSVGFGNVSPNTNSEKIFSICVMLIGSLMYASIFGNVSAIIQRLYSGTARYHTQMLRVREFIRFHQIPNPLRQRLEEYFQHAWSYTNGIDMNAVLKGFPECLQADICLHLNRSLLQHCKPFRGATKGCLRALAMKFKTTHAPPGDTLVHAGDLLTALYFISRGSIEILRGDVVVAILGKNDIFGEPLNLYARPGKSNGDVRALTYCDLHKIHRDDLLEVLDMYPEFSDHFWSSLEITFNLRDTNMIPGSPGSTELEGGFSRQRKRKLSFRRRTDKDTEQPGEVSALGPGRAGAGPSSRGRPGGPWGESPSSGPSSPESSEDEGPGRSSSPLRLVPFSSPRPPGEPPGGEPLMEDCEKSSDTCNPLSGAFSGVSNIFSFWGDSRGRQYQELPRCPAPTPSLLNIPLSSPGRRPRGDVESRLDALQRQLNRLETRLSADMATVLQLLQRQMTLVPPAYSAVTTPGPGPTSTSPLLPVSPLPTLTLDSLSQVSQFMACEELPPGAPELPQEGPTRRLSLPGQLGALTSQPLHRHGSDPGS

[17] = target: hERG (KCNH2) (Homo sapiens, UniProt Q12809); test: Inhibition of hERG potassium channel in HEK293 cells by patch clamp assay at 1 uM; details: HEK293 cells that express hERG
Sequence of hERG (KCNH2) (Q12809 whole entry): as above

SMILES: CC(=O)Nc1cccc(N2CCN(CC3CCN(S(=O)(=O)CC4CCCCC4)CC3)CC2)c1
Activity [1]: 13%
half-life [2]: 0.75 h
Activity [3]: < 10%

SMILES: CC(=O)Nc1cccc(N2CCN(CCCCN(C)S(=O)(=O)CC3CCCCC3)CC2)c1
Activity [1]: 47%
half-life at 5 µM [11]: 0.2 h
half-life at 5 µM [12]: 1.08 h
pEC50 [13]: 8.44
Activity [3]: 37%
Activity [14]: 37%

SMILES: CC(=O)Nc1cccc(N2CCN(CCCCNS(=O)(=O)c3ccc(C)cc3)CC2)c1
Activity [1]: 43%
half-life at 5 µM [11]: 0.65 h
Ki [5]: > 3500 nM
half-life [2]: 3.3 h
bioavailability [15]: 15%
Activity [3]: 22%

SMILES: Cc1ccc(S(=O)(=O)NCCCCN2CCN(c3cccc(NC(=O)C4CC4)c3)CC2)cc1
Activity [1]: 10%
pKi [4]: 7.66
Activity [3]: < 10%

SMILES: CC(=O)Nc1cccc(N2CCN(CC3CCN(S(=O)(=O)c4ccc(F)cc4)CC3)CC2)c1
Activity [1]: < 10%
Activity [3]: 49%

SMILES: Cc1ccc(S(=O)(=O)NCCCCN2CCN(c3cccc(NS(C)(=O)=O)c3)CC2)cc1
Activity [1]: 21%
Activity [3]: 51%

Second part, led by results:

pKi [4]: 8.22
Ki [5]: 229 nM
Ratio Ki [6]: 38
pKi [7]: 6.96
Ratio Ki [8]: 18
half-life [9]: 2 h
SMILES: O=C1c2ccccc2S(=O)(=O)N1CCCCN1CCN(c2ncccn2)CC1 [IPSAPIRONE]

pKi [7]: 7.24
half-life [9]: 6 h
Activity [10]: 80%
SMILES: CC1(C)CC(=O)N(CCCCN2CCN(c3ncccn3)CC2)C(=O)C1 [GEPIRONE]

Activity [1]: 11%
Activity [3]: 0%
SMILES: Cc1ccc(S(=O)(=O)NCCCCN2CCN(c3cccc(NC(=O)C(C)(C)C)c3)CC2)cc1

Activity [1]: 12%
Activity [3]: 12%
SMILES: CCCC(=O)Nc1cccc(N2CCN(CCCCNS(=O)(=O)c3ccc(C)cc3)CC2)c1

Activity [1]: 16%
half-life at 5 µM [11]: > 0.75 h
pKi [4]: 8.01
pEC50 [13]: 7.49
Activity [3]: 27%
Activity [14]: 27%
SMILES: CC(=O)Nc1cccc(N2CCN(CCCCN(C)S(=O)(=O)CC(C)C)CC2)c1
pIC50 [16]: 5.66
inhibition at 1 µM [17]: 31%

Activity [1]: 90%
Activity [3]: 98%
SMILES: Cc1ccc(S(=O)(=O)NCCCCN2CCN(c3ccccc3)CC2)cc1
